Like-named read-outs stand apart in the source and are kept apart here.
Columns and labels:
Assay type in all cases: cell-based
TRPML1 = TRPML1 (Homo sapiens, UniProt Q9GZU1); assay: Fluorescent TRPML1 assay (Fluo4-AM calcium fluorescence in doxycycline-induced HEK-293 Trex cells)
Procedure, shortened: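 HEK-293 Trex cells stably expressing surface-directed mutant human TRPML1, induced with 0.5 µg/mL doxycycline overnight, were loaded with 1 µM Fluo4-AM and added to compound (6 nM–20 µM final, half-log steps, triplicate) in Ringer's with 10 mM calcium. Fluorescence ex 480/em 540; EC50 by non-linear regression versus plate controls.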

TRPML3 = molecular target: T1, TRPML3 (Homo sapiens, UniProt Q8TDD5); assay: Fluorescent TRPML3 assay (performed as for TRPML1, substituting the TRPML3 subtype)
T1 construct: expressed in transfected cells
T1 sequence (Q8TDD5 1-553): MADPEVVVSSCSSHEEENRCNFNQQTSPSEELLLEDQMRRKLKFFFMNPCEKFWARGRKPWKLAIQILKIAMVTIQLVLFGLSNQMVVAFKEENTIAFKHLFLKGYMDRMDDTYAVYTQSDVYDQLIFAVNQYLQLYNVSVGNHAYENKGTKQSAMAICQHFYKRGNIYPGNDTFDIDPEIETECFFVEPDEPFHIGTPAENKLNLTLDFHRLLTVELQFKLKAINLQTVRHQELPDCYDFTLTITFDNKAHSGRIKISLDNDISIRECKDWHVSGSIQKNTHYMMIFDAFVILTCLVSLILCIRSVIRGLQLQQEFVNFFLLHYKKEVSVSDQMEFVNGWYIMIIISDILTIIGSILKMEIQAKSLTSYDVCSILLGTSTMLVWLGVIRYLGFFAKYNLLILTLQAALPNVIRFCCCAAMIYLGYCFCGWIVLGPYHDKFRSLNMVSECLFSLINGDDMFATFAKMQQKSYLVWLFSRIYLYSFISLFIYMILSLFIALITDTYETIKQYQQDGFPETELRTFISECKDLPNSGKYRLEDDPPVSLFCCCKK
Procedure, shortened: (§1)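 Doxycycline-induced (0.5 ug/mL) HEK-293 Trex cells stably expressing surface-directed mutant channel were loaded with 1 micromolar Fluo4-AM, resuspended in Ringer's with 10 mM calcium and added to compound plates. Fluorescence (ex 480, em 540 nm) gave percent activity versus on-plate controls; EC50 by non-linear regression.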

TRPML2 = molecular target: T2, TRPML2 (Homo sapiens, UniProt Q8IZK6); assay: Fluorescent TRPML2 assay (performed as for TRPML1, substituting the TRPML2 subtype)
T2 construct: expressed in transfected cells
T2 sequence (Q8IZK6 1-566): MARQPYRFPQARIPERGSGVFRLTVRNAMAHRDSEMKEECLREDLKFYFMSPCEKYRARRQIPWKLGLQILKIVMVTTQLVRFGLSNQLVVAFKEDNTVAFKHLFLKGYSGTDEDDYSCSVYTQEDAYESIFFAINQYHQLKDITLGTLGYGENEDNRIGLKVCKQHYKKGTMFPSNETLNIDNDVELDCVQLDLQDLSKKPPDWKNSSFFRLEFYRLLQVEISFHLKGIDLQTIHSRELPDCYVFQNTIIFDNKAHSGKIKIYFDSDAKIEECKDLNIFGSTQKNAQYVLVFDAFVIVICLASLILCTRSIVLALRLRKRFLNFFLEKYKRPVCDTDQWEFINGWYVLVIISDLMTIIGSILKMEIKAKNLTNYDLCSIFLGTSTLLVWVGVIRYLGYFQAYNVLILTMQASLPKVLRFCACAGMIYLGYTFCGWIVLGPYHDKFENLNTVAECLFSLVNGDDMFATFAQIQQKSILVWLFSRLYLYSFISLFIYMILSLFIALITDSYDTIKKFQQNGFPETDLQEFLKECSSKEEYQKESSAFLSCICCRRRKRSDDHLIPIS
Procedure, shortened: as §1

Chain of TRPML1 (Q9GZU1 whole entry L15A/L16A/L577A/L578A, form open): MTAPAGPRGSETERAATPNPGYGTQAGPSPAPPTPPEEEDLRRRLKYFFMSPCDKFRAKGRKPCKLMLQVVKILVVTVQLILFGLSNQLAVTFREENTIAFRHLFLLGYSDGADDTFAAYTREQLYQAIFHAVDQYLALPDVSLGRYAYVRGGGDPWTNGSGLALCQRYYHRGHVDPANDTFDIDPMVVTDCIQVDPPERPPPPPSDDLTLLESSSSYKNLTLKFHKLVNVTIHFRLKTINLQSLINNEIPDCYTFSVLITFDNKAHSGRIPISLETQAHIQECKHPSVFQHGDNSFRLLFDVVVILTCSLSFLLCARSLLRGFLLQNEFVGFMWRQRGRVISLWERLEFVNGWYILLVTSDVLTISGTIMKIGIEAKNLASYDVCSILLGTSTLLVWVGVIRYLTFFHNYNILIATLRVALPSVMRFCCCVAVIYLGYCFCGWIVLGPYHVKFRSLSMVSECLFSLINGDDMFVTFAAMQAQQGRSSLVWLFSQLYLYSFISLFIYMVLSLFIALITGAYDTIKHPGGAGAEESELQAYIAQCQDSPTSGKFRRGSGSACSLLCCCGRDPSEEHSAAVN

SMILES | EC50 (TRPML1; fluorescent calcium assay) | EC50 (TRPML3; fluorescent calcium assay) | EC50 (TRPML2; fluorescent calcium assay) | EC50 (TRPML1) | EC50 (TRPML3) | EC50 (TRPML2)
C[C@@H]1CN(C(=O)OC(C)(C)C)CCN1c1ncnc2c1c(C1CC1)cn2-c1cc(F)cc(F)c1 [Compound 211, tert-butyl (R)-4-(5-cyclopropyl-7-(3,5-difluorophenyl)-7H-pyrrolo[2,3-d]pyrimidin-4-yl)-3-methylpiperazine-1-carboxylate] | 100 to 500 nM | < 100 nM | 500 to 2000 nM | – | – | –
CC(C)(C)OC(=O)N1CCN(c2ncnc3c2c(C2CC2)cn3-c2cc(Cl)cc(Cl)c2)CC1 [Compound 122, tert-butyl 4-(5-cyclopropyl-7-(3,5-dichlorophenyl)-7H-pyrrolo[2,3-d]pyrimidin-4-yl)piperazine-1-carboxylate] | < 100 nM | < 100 nM | > 2000 nM | – | – | –
C[C@@H]1CN(c2ncnc3c2c(C2CC2)cn3-c2cncc(C(F)(F)F)c2)[C@@H](C)CN1C(=O)OC(C)(C)C [Compound 167, tert-butyl (2R,5S)-4-(5-cyclopropyl-7-(5-(trifluoromethyl)pyridin-3-yl)-7H-pyrrolo[2,3-d]pyrimidin-4-yl)-2,5-dimethylpiperazine-1-carboxylate] | 100 to 500 nM | < 100 nM | 500 to 2000 nM | – | – | –
C[C@@H]1CN(c2ncnc3c2c(-c2cnccn2)cn3-c2cc(F)cc(Cl)c2)CCN1C(=O)OC(C)(C)C [Compound 223, tert-butyl (R)-4-(7-(3-chloro-5-fluorophenyl)-5-(pyrazin-2-yl)-7H-pyrrolo[2,3-d]pyrimidin-4-yl)-2-methylpiperazine-1-carboxylate] | 100 to 500 nM | 100 to 500 nM | 500 to 2000 nM | – | – | –
C[C@H]1CN(C(=O)OC(C)(C)C)CCN1c1ncnc2c1c(C1CC1)cn2-c1cccc(F)c1F [Compound 217, tert-butyl (S)-4-(5-cyclopropyl-7-(2,3-difluorophenyl)-7H-pyrrolo[2,3-d]pyrimidin-4-yl)-3-methylpiperazine-1-carboxylate] | 100 to 500 nM | 100 to 500 nM | 500 to 2000 nM | – | – | –

Further lines, results first:

EC50 (TRPML1; fluorescent calcium assay) | EC50 (TRPML3; fluorescent calcium assay) | EC50 (TRPML2; fluorescent calcium assay) | EC50 (TRPML1) | EC50 (TRPML3) | EC50 (TRPML2) | SMILES
> 2000 nM | 500 to 2000 nM | > 2000 nM | – | – | – | C[C@H]1CN(C(=O)OC(C)(C)C)CCN1c1ncnc2c1c(N1CCCC1=O)cn2-c1cccc(Cl)c1 [Compound 309, tert-butyl (S)-4-(7-(3-chlorophenyl)-5-(2-oxopyrrolidin-1-yl)-7H-pyrrolo[2,3-d]pyrimidin-4-yl)-3-methylpiperazine-1-carboxylate]
– | – | – | < 100 nM | < 100 nM | < 100 nM | C[C@H]1CN(C(=O)OC(C)(C)C)CCN1c1nccc2c1c(-c1ccccc1F)cn2-c1cccc(F)c1 [Compound 703, tert-butyl (S)-4-(3-(2-fluorophenyl)-1-(3-fluorophenyl)-1H-pyrrolo[3,2-c]pyridin-4-yl)-3-methylpiperazine-1-carboxylate]
100 to 500 nM | 100 to 500 nM | 500 to 2000 nM | – | – | – | C[C@H]1CN(C(=O)OC(C)(C)C)CCN1c1ncnc2c1c(-c1ccccc1F)cn2-c1nc(C#N)cs1 [Compound 433, tert-butyl (S)-4-(7-(4-cyanothiazol-2-yl)-5-(2-fluorophenyl)-7H-pyrrolo[2,3-d]pyrimidin-4-yl)-3-methylpiperazine-1-carboxylate]
100 to 500 nM | < 100 nM | 100 to 500 nM | – | – | – | C[C@H]1CN(C(=O)OC(C)(C)C)CCN1c1ncnc2c1c(N1CCOCC1)cn2-c1cccc(Cl)c1 [Compound 230, tert-Butyl (S)-4-(7-(3-chlorophenyl)-5-morpholino-7H-pyrrolo[2,3-d]pyrimidin-4-yl)-3-methylpiperazine-1-carboxylate]
500 to 2000 nM | 500 to 2000 nM | > 2000 nM | – | – | – | C[C@H]1CN(C(=O)OC(C)(C)C)CCN1c1ncnc2c1c(-c1cnn(C)c1)cn2-c1cccc(OC(F)(F)F)c1 [Compound 321, tert-butyl (S)-3-methyl-4-(5-(1-methyl-1H-pyrazol-4-yl)-7-(3-(trifluoromethoxy)phenyl)-7H-pyrrolo[2,3-d]pyrimidin-4-yl)piperazine-1-carboxylate]

From patent US20250136606A1, “MODULATORS OF TRPML, THEIR COMPOSITIONS AND METHODS OF USE” (Caraway Therapeutics, Inc., priority 2021, published 2025)
